Experimental findings from ChEMBL document CHEMBL5726158, “5H-pyrido[3,2-B]indole compounds as anticancer agents” (2019) are described below.

For this assay, the target named is Bromodomain-containing protein 4 (Homo sapiens, UniProt O60885). Nature of the assay: Time Resolved Fluorescence Resonance Energy Transfer (TR-FRET) Assay: The binding of compounds to bromodomain BRD4 (44-168), BRD4 (333-460), and BRD4 (1-477 or 44-460) was assessed using a time resolved fluorescent resonance energy transfer binding assay (1), that measures the binding of a fluorescently labeled probe molecule to the bromodomain protein. The bromodomain protein, fluorescent probe molecule (either a biotinylated histone peptide or a fluorescently labeled small molecule), and dose-responsed test compound are incubated together to reach thermodynamic equilibrium. In the absence of a test compound, the bromodomain and small molecule are bound, resulting in a high fluorescent signal. In the presence of a sufficient concentration of inhibitor, this interaction is disrupted resulting in a lost of fluorescent resonance energy transfer.All assay components were dissolved in buffer composition 20 mM Hepes pH 7.5, 150 mM NaCl, 5 mM DTT, 0.005% Tween 20, and 100 ug/ml BSA for BRD4 (1-477 and 44-460). The final concentrations of the bromodomain proteins are 1.6 nM BRD4(44-168), 1 nM BRD4(333-460), and 1 nM BRD4(1-477 or 44-460), and the fluorescent probe molecule is 100 nM, 50 nM, and 7.5 nM respectively. All proteins were biotinylated. […]. In general terms: Time-resolved FRET reads energy transfer from a long-lived donor to a nearby acceptor.

The structures appear in SMILES notation.

For `Cc1nnn(C)c1-c1cnc2c3cc(C4CCN(C(=O)OC(C)(C)C)CC4)ccc3n([C@H](c3ccccc3)C3CCOCC3)c2c1`, the IC50 was less than 5 nM.

A word on the IC50: it is the concentration at which inhibition is half-maximal.
